According to PMC10854695, “Using Flavonoid Substitution Status to Predict Anticancer Effects in Human Melanoma Cancers: An In Vitro Study” (Cancers, 2024):

Key:
C32 melanoma cells [1] = assay: Neutral red uptake (NRU) assay, C32; conditions: Homo sapiens
Description: (§1) The NRU (neutral red uptake) was conducted as previously described by Szoka and co-workers, with some modifications [22]. Briefly, melanoma cells and fibroblasts were seeded in microplates at the density of 1 × 10^4 cells per well and allowed to adhere for 24 h. […] After treatment, the culture medium was replaced with a neutral red solution (40 µg/mL). An additional 2 h of incubation was performed. The neutral red solution was then removed and the neutral red accumulated in the cells was dissolved in 50% EtOH with 1% of the glacial acetic acid. The absorbance was estimated at 540 nm and IC50 values were calculated using GraphPad Prism software (GraphPad Software, San Diego, CA, USA).

[2] = MTT cell viability assay, normal cells; conditions: human;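 also: fibroblasts served as non-cancer comparison line for selectivity versus melanoma cells, MTT reduction read as absorbance at 570 nm after 2 h dye exposure, compounds in ≤0.1% DMSO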
Description: (§2) The MTT colorimetric assay was performed as a preliminary evaluation of the cytotoxicity of the selected flavonoids according to the method described and validated by Strawa et al. [21]. Briefly, melanoma cells and fibroblasts were seeded in 96-well microplates at a density of 1 × 10^4 cells per well. Fibroblasts were used as a control cell line in order to assess the selectivity of the compounds. […] Subsequently, the cells were washed with PBS, incubated with MTT solution for 2 h, and lysed with dimethyl sulfoxide (DMSO) supplemented with 1% (v/v) Sorensen’s glycine buffer. The absorbance was measured using a microplate reader (EPOCH 2, BioTek, Winooski, VT, USA) at a wavelength of 570 nm. The compounds were used at a final DMSO concentration of no more than 0.1% (v/v) in each well. The results were generated from at least three independent experiments. […] The IC50 values were calculated with GraphPad Prism 9 software (GraphPad Software, San Diego, CA, USA).

C32 melanoma cells [3] = assay: MTT cell viability assay, C32; conditions: Homo sapiens, read-out: IC50, cytotoxic activity, MTT test;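 also: MTT added for 2 h, cells lysed in DMSO, absorbance read at 570 nm, compound vehicle kept at or below 0.1% DMSO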
Description: as §2

A375 melanoma cells [4] = assay: MTT cell viability assay, A375; conditions: Homo sapiens;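 also: Read-out is formazan absorbance at 570 nm after 2 h with MTT, with compounds in at most 0.1% v/v DMSO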
Description: as §2

[5] = Neutral red uptake (NRU) assay, normal cells; conditions: human
A375 melanoma cells [6] = assay: Neutral red uptake (NRU) assay, A375; conditions: Homo sapiens, read-out: IC50, cytotoxic activity, NRU assay
Description: as §1

[7] = C32, 24 h, read-out: IC50, cytotoxic activity, NRU assay, C32, 24 h
[8] = C32, 48 h, read-out: IC50, cytotoxic activity, NRU assay, C32, 48 h
[9] = C32, 72 h, read-out: IC50, cytotoxic activity, NRU assay, C32, 72 h
[10] = human skin fibroblasts (CCD25Sk)
[11] = A-375, 24 h, read-out: IC50, cytotoxic activity, MTT test, A375, 24 h
[12] = A-375, 48 h, read-out: IC50, cytotoxic activity, MTT test, A375, 48 h
[13] = A-375, 72 h, read-out: IC50, cytotoxic activity, MTT test, A375, 72 h
[14] = C32, 24 h, read-out: IC50, cytotoxic activity, NRU assay
[15] = C32, 48 h, read-out: IC50, cytotoxic activity, NRU assay
[16] = C32, 72 h, read-out: IC50, cytotoxic activity, NRU assay
[17] = A-375, 24 h, read-out: IC50, cytotoxic activity, MTT test
[18] = A-375, 48 h, read-out: IC50, cytotoxic activity, MTT test
[19] = A-375, 72 h, read-out: IC50, cytotoxic activity, MTT test

Row | IC50 at 24 h [5, 10] [µM] | IC50 at 48 h [5, 10] [µM] | IC50 at 72 h [5, 10] [µM] | SMILES | IC50 (C32 melanoma cells [1]; [7]) [µM] | IC50 (C32 melanoma cells [1]; [8]) [µM] | IC50 (C32 melanoma cells [1]; [9]) [µM] | IC50 at 24 h [2, 10] [µM] | IC50 at 48 h [2, 10] [µM] | IC50 at 72 h [2, 10] [µM] | IC50 (C32 melanoma cells [3]; C32, 24 h) [µM] | IC50 (C32 melanoma cells [3]; C32, 48 h) [µM] | IC50 (C32 melanoma cells [3]; C32, 72 h) [µM] | IC50 (A375 melanoma cells [4]; [11]) [µM] | IC50 (A375 melanoma cells [4]; [12]) [µM] | IC50 (A375 melanoma cells [4]; [13]) [µM] | IC50 (A375 melanoma cells [6]; A-375, 24 h) [µM] | IC50 (A375 melanoma cells [6]; A-375, 48 h) [µM] | IC50 (A375 melanoma cells [6]; A-375, 72 h) [µM] | other results
1 | > 200 | > 200 | > 200 | O=C(O)C1OC(Oc2c(-c3ccc(O)c(O)c3)oc3cc(O)cc(O)c3c2=O)C(O)C(O)C1O (stereo not drawn) [Compound 27, quercetin 3-O-glucuronide] | > 200 | > 200 | 100 to 200 | > 200 | > 200 | > 200 | > 200 | > 200 | > 200 | > 200 | > 200 | > 200 | > 200 | > 200 | > 200 | 
2 | > 200 | 66.3 ± 5.6 | 38.4 ± 3.4 | COc1cc(O)c2c(=O)c(O)c(-c3ccc(O)c(O)c3)oc2c1 [Compound 25, 7-methoxyquercetin] | > 200 | 55.4 ± 4.3 | 28.4 ± 2.5 | 100 to 200 | 45.3 ± 2.3 | 35.7 ± 2.9 | > 200 | 100 to 200 | 37.7 ± 2.5 | 100 to 200 | 42.1 ± 3 | 25.1 ± 2.3 | > 200 | 63.4 ± 4.8 | 43.7 ± 3.5 | 
3 | > 200 | 69.8 ± 5.8 | 51.1 ± 3.2 | O=c1c(O)c(-c2ccc(O)cc2)oc2cc(O)cc(O)c12 [Compound 18, kaempferol] | > 200 | 62.8 ± 3.5 | 34.4 ± 2.9 | 100 to 200 | 100 to 200 | 55.8 ± 4.5 | 100 to 200 | 100 to 200 | 58.4 ± 3.5 | 100 to 200 | 100 to 200 | 75.8 ± 5.8 | 100 to 200 | 57.4 ± 4.6 | 47.7 ± 3.9 | 
4 | > 200 | > 200 | 64.8 ± 5 | COc1c(O)cc(O)c2c(=O)c(O)c(-c3ccc(O)cc3)oc12 [Compound 19, 8-methoxykaempferol] | 100 to 200 | 88.8 ± 7 | 71.9 ± 7 | > 200 | > 200 | 100 to 200 | 100 to 200 | 100 to 200 | 100 to 200 | 100 to 200 | 100 to 200 | 61.8 ± 3.1 | 100 to 200 | 100 to 200 | 100 to 200 | 
5 | > 200 | 92.6 ± 4.2 | 36.4 ± 0.23 | O=c1c(O)c(-c2ccc(O)c(O)c2)oc2cc(O)cc(O)c12 [Compound 24, quercetin] | > 200 | 58 ± 3.5 | 47.5 ± 4.3 | > 200 | > 200 | 36.1 ± 2 | > 200 | > 200 | 68.1 ± 4.6 | > 200 | > 200 | 74.4 ± 5 | 100 to 200 | 84.7 ± 6.5 | 79.2 ± 7.3 | 
6 | > 200 | > 200 | > 200 | O=c1c(O)c(-c2cc(O)c(O)c(O)c2)oc2cc(O)ccc12 [Compound 32, robinetin] | > 200 | > 200 | > 200 | > 200 | > 200 | > 200 | > 200 | > 200 | > 200 | > 200 | > 200 | 100 to 200 | > 200 | > 200 | > 200 | 

Second part, the molecule before the results:

Row | SMILES | IC50 at 24 h [5, 10] [µM] | IC50 at 48 h [5, 10] [µM] | IC50 at 72 h [5, 10] [µM] | IC50 (C32 melanoma cells [1]; [7]) [µM] | IC50 (C32 melanoma cells [1]; [8]) [µM] | IC50 (C32 melanoma cells [1]; [9]) [µM] | IC50 at 24 h [2, 10] [µM] | IC50 at 48 h [2, 10] [µM] | IC50 at 72 h [2, 10] [µM] | IC50 (C32 melanoma cells [3]; C32, 24 h) [µM] | IC50 (C32 melanoma cells [3]; C32, 48 h) [µM] | IC50 (C32 melanoma cells [3]; C32, 72 h) [µM] | IC50 (A375 melanoma cells [4]; [11]) [µM] | IC50 (A375 melanoma cells [4]; [12]) [µM] | IC50 (A375 melanoma cells [4]; [13]) [µM] | IC50 (A375 melanoma cells [6]; A-375, 24 h) [µM] | IC50 (A375 melanoma cells [6]; A-375, 48 h) [µM] | IC50 (A375 melanoma cells [6]; A-375, 72 h) [µM] | other results
7 | O=C(O)C1OC(Oc2cc(O)c3c(=O)cc(-c4ccc(O)cc4)oc3c2)C(O)C(O)C1O (stereo not drawn) [Compound 4, apigenin 7-O-glucuronide] | > 200 | > 200 | > 200 | > 200 | > 200 | > 200 | > 200 | > 200 | > 200 | > 200 | > 200 | > 200 | > 200 | > 200 | > 200 | > 200 | > 200 | > 200 | 
8 | COc1ccc(C2CC(=O)c3c(O)cc(OC4OC(CO)C(O)C(O)C4OC4OC(C)C(O)C(O)C4O)cc3O2)cc1O (stereo not drawn) [Compound 35, hesperetin 7-O-neohesperidoside] | > 200 | > 200 | > 200 | > 200 | > 200 | > 200 | > 200 | > 200 | > 200 | > 200 | > 200 | > 200 | > 200 | > 200 | > 200 | > 200 | > 200 | > 200 | 
9 | O=c1cc(-c2ccc(O)cc2)oc2cc(OC3OC(CO)C(O)C(O)C3O)cc(O)c12 (stereo not drawn) [Compound 3, apigenin 7-O-glucoside] | > 200 | > 200 | > 200 | > 200 | > 200 | > 200 | > 200 | > 200 | > 200 | > 200 | > 200 | > 200 | > 200 | > 200 | > 200 | > 200 | > 200 | > 200 | 
10 | O=c1c(-c2ccc(O)cc2)coc2cc(O)ccc12 [Compound 36, daidzein] | > 200 | > 200 | > 200 | > 200 | > 200 | > 200 | > 200 | > 200 | > 200 | > 200 | > 200 | > 200 | > 200 | > 200 | > 200 | > 200 | > 200 | > 200 | 
11 | CC1OC(OCC2OC(Oc3c(-c4ccc(O)c(O)c4)oc4cc(OC5OC(CO)C(O)C(O)C5O)cc(O)c4c3=O)C(O)C(O)C2O)C(O)C(O)C1O (stereo not drawn) [Compound 29, quercetin 3-O-rutinoside-7-O-glucoside] | > 200 | > 200 | > 200 | > 200 | > 200 | > 200 | > 200 | > 200 | > 200 | > 200 | > 200 | > 200 | > 200 | > 200 | > 200 | > 200 | > 200 | > 200 | 
12 | C[C@@H]1O[C@@H](OC[C@H]2O[C@@H](Oc3c(-c4ccc(O)c(O)c4)oc4cc(O)cc(O)c4c3=O)[C@H](O)[C@@H](O)[C@@H]2O)[C@H](O)[C@H](O)[C@H]1O [Compound 28, quercetin 3-O-rutinoside] | > 200 | > 200 | > 200 | > 200 | > 200 | > 200 | > 200 | > 200 | > 200 | > 200 | > 200 | > 200 | > 200 | 57 ± 3.1 | 57.8 ± 4.8 | > 200 | > 200 | > 200 | 
13 | COc1cc(-c2oc3cc(O)cc(O)c3c(=O)c2O)ccc1O [Compound 26, 3′-methoxyquercetin] |  |  |  |  |  |  |  |  |  | > 200 | 100 to 200 | 49.3 ± 3.6 |  |  |  | > 200 | 100 to 200 | 78.1 ± 6.5 | IC50 (C32 melanoma cells [1]; [14]): > 200 µM; IC50 (C32 melanoma cells [1]; [15]): 100 to 200 µM; IC50 (C32 melanoma cells [1]; [16]): 65.1 ± 4 µM; IC50 at 24 h [2]: 100 to 200 µM; IC50 at 48 h [2]: 68.5 ± 5.4 µM; IC50 at 72 h [2]: 46.2 ± 3.3 µM; IC50 (A375 melanoma cells [4]; [17]): 86.3 ± 5.9 µM; IC50 (A375 melanoma cells [4]; [18]): 68.5 ± 3.9 µM; IC50 (A375 melanoma cells [4]; [19]): 50.8 ± 4 µM; IC50 at 24 h [5]: > 200 µM; IC50 at 48 h [5]: 78.7 ± 5.5 µM; IC50 at 72 h [5]: 69.2 ± 4.6 µM
14 | COc1cc(-c2cc(=O)c3c(O)cc(O)cc3o2)cc(OC)c1O [Compound 31, tricin] |  |  |  |  |  |  |  |  |  | > 200 | 100 to 200 | 100 to 200 |  |  |  | > 200 | > 200 | > 200 | IC50 (C32 melanoma cells [1]; [14]): > 200 µM; IC50 (C32 melanoma cells [1]; [15]): > 200 µM; IC50 (C32 melanoma cells [1]; [16]): > 200 µM; IC50 at 24 h [2]: 100 to 200 µM; IC50 at 48 h [2]: 80.3 ± 6.6 µM; IC50 at 72 h [2]: 56.4 ± 4.7 µM; IC50 (A375 melanoma cells [4]; [17]): > 200 µM; IC50 (A375 melanoma cells [4]; [18]): 100 to 200 µM; IC50 (A375 melanoma cells [4]; [19]): 100 to 200 µM; IC50 at 24 h [5]: > 200 µM; IC50 at 48 h [5]: > 200 µM; IC50 at 72 h [5]: > 200 µM
